Measured values taken from ChEMBL document CHEMBL4043269, “Synthesis and structure activity relationships of carbamimidoylcarbamate derivatives as novel vascular adhesion protein-1 inhibitors” (Bioorg Med Chem, 2017).

Assays:
[1] = Aqueous solubility of compound in Japanese pharmacopoeia second fluid at pH 6.8 at 130 uM after 20 hrs by HPLC analysis; type: physicochemical
CYP2D6 = CYP2D6 (Homo sapiens, UniProt P10635); assay: Inhibition of CYP2D6 in human liver microsomes using dextromethorphan as substrate assessed as residual activity at 5 uM after 20 mins by HPLC analysis; type: ADME; details: probe dextromethorphan, read-out: Activity
CYP2C9 = CYP2C9 (Homo sapiens, UniProt P11712); assay: Inhibition of CYP2C9 in human liver microsomes using diclofenac as substrate assessed as residual activity at 5 uM after 20 mins by HPLC analysis; type: ADME; details: probe diclofenac, read-out: Activity
CYP2C19 = CYP2C19 (Homo sapiens, UniProt P33261); assay: Inhibition of CYP2C19 in human liver microsomes using S-mephenytoin as substrate assessed as residual activity at 5 uM after 20 mins by HPLC analysis; type: ADME; details: probe S-mephenytoin, read-out: Activity
CYP1A2 = target: T1, CYP1A2 (Homo sapiens, UniProt P05177); assay: Inhibition of CYP1A2 in human liver microsomes using phenacetin as substrate assessed as residual activity at 5 uM after 20 mins by HPLC analysis; type: ADME; details: probe phenacetin, read-out: Activity
T1 sequence (P05177 whole entry): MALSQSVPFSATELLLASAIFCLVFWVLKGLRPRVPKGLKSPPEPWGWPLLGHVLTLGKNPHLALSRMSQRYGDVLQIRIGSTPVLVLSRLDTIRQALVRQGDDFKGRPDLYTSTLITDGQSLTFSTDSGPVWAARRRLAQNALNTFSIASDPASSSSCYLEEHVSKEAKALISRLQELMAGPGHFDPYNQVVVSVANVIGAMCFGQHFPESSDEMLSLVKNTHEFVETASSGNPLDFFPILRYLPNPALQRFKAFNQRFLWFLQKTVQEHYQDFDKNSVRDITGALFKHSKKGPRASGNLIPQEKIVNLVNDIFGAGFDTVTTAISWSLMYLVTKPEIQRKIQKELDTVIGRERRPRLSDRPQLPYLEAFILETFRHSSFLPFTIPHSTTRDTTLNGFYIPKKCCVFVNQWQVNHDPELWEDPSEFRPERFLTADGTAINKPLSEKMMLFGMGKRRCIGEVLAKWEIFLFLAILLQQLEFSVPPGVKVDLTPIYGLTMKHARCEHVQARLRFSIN

CYP3A4 = CYP3A4 (Homo sapiens, UniProt P08684); assay: Inhibition of CYP3A4 in human liver microsomes using midazolam as substrate assessed as residual activity at 5 uM after 20 mins by HPLC analysis; type: ADME; details: probe midazolam, read-out: Activity
[2] = target: T2, Amine oxidase [copper-containing] 3 (Homo sapiens, UniProt Q16853); assay: Inhibition of human VAP-1 expressed in CHO cells preincubated for 20 mins followed by [14C]-benzylamine addition measured after 1 hr by scintillation spectrometric analysis; type: cell-based
T2 sequence (Q16853 whole entry): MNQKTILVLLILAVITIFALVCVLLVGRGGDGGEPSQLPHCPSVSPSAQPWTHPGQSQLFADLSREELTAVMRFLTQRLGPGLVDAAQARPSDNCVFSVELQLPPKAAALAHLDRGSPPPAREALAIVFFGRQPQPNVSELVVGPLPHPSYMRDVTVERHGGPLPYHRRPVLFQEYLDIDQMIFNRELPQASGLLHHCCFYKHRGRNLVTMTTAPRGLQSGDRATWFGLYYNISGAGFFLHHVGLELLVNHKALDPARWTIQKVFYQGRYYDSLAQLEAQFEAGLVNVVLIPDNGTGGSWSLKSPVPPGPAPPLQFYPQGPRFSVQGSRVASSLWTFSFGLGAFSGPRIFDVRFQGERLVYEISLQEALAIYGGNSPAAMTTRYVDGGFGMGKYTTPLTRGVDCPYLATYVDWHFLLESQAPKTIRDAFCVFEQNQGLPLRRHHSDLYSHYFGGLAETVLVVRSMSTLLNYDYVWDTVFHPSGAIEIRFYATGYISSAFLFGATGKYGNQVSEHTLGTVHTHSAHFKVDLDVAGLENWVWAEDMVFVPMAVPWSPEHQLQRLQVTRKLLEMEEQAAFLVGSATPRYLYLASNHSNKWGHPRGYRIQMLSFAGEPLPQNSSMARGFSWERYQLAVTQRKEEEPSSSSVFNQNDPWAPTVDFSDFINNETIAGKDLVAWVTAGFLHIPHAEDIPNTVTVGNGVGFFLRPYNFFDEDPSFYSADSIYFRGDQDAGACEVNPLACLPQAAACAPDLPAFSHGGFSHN

CYP2C8 = target: T3, CYP2C8 (Homo sapiens, UniProt P10632); assay: Inhibition of CYP2C8 in human liver microsomes using amodiaquine as substrate assessed as residual activity at 5 uM after 20 mins by HPLC analysis; type: ADME; details: probe amodiaquine, read-out: Activity
T3 sequence (P10632 whole entry): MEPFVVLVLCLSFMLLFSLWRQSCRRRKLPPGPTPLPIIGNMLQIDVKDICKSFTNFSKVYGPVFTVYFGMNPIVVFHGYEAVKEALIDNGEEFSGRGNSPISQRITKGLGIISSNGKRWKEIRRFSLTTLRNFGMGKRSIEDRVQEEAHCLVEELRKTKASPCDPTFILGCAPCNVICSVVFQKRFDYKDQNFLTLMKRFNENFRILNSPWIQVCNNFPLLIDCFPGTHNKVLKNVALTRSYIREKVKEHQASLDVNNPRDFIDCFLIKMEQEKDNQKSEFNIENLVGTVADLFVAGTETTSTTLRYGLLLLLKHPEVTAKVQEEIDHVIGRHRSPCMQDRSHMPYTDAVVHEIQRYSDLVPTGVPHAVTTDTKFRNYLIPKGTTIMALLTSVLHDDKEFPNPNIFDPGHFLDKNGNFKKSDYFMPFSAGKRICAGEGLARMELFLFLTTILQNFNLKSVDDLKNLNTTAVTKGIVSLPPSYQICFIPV

[3] = Stability in human plasma assessed as parent compound remaining at 2 uM after 6 hrs by LC-MS/MS analysis relative to initial concentration; type: ADME, cell-free; details: read-out: Stability
[4] = Stability in cynomolgus monkey plasma assessed as parent compound remaining at 2 uM after 6 hrs by LC-MS/MS analysis relative to initial concentration; type: ADME, cell-free, Macaca fascicularis; details: read-out: Stability
[5] = Stability in Beagle dog plasma assessed as parent compound remaining at 2 uM after 6 hrs by LC-MS/MS analysis relative to initial concentration; type: ADME, cell-free, Canis lupus familiaris; details: read-out: Stability
[6] = Stability in Wistar rat plasma assessed as parent compound remaining at 2 uM after 6 hrs by LC-MS/MS analysis relative to initial concentration; type: ADME, cell-free; details: read-out: Stability

CYP2C19, sequence (P33261 whole entry): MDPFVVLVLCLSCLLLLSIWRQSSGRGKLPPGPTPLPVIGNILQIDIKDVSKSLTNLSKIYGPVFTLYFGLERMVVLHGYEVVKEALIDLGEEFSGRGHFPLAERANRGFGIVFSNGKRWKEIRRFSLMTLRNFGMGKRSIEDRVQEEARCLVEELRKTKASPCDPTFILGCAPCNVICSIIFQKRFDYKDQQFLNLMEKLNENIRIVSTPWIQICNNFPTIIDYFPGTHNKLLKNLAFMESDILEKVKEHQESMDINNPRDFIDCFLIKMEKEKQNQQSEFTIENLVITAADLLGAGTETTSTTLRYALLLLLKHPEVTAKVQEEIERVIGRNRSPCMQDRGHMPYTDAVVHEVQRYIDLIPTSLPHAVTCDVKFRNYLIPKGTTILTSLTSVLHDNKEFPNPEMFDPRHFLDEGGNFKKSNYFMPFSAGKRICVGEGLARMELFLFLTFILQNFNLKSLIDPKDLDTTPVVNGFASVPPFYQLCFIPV
CYP2D6, sequence (P10635 whole entry): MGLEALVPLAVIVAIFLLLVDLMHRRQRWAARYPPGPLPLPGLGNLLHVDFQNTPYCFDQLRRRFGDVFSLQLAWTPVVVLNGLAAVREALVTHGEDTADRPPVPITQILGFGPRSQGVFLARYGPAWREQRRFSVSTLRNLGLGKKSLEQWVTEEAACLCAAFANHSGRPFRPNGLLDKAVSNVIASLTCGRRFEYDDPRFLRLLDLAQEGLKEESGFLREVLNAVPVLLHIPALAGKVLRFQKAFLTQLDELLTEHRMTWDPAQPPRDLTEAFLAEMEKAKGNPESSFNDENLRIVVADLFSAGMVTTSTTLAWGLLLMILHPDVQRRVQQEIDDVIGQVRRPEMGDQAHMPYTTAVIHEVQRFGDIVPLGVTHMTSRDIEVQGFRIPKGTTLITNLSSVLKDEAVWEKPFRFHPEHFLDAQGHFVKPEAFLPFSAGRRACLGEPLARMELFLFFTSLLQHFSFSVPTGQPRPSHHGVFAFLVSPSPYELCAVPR
CYP3A4, sequence (P08684 whole entry): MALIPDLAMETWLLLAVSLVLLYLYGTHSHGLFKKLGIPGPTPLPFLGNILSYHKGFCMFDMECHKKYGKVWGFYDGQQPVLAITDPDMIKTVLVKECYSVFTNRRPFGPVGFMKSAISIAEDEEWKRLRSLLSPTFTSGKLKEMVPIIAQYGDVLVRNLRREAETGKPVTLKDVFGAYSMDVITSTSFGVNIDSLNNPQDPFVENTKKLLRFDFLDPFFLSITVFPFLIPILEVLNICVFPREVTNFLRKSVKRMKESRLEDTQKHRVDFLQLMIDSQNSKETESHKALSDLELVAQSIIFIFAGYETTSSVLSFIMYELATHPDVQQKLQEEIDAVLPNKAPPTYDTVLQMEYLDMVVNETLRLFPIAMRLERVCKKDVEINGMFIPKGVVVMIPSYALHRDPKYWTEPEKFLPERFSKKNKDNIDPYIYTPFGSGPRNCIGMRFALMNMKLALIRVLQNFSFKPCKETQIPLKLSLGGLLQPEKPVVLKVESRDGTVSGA
CYP2C9, sequence (P11712 whole entry): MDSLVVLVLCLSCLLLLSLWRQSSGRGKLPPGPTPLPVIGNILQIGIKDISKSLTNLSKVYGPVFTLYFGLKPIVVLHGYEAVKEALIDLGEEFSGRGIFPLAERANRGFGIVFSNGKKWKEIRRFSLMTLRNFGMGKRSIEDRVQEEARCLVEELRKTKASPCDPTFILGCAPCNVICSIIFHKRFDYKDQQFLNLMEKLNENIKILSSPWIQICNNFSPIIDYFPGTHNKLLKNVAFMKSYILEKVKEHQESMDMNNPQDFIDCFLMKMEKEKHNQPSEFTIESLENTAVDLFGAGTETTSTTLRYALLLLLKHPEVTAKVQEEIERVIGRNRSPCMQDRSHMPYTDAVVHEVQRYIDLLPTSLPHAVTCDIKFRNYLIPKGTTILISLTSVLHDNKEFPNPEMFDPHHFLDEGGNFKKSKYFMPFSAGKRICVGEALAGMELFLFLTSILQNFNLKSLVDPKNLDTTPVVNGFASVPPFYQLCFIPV

## Cl.Cl.Cl.N=C(N)NC(=O)OCc1cccc(N2CCN(c3cccnc3)CC2)c1
[1]
  solubility at 20 h, 130 µM: ≥ 100 µM
CYP2D6
  activity at 20 min, 5 µM: 68%
CYP2C9
  activity at 20 min, 5 µM: 101%
CYP2C19
  activity at 20 min, 5 µM: 99%
CYP1A2
  activity at 20 min, 5 µM: 55%
CYP3A4
  activity at 20 min, 5 µM: 64%
[2]
  IC50: 31 nM
CYP2C8
  activity at 20 min, 5 µM: 92%

## N=C(N)NC(=O)OCc1cccc(N2CCC(Oc3cccnc3)CC2)c1F.O=C(O)C(O)C(O)C(=O)O
[1]
  solubility at 20 h, 130 µM: ≥ 100 µM
CYP2D6
  activity at 20 min, 5 µM: 11%
CYP2C19
  activity at 20 min, 5 µM: 96%
CYP1A2
  activity at 20 min, 5 µM: 93%
CYP3A4
  activity at 20 min, 5 µM: 32%
[2]
  IC50: 45 nM
CYP2C8
  activity at 20 min, 5 µM: 61%

## Cl.Cl.N=C(N)NC(=O)OCc1ccc(F)c(-c2cnc(N3CCOCC3)nc2)c1
[1]
  solubility at 20 h, 130 µM: 68 µM
[2]
  IC50: 99 nM

## Cl.Cl.Cl.N=C(N)NC(=O)OCc1cccc(N2CCC(N3CCOCC3)CC2)c1
[1]
  solubility at 20 h, 130 µM: ≥ 100 µM
[2]
  IC50: 160 nM

## Cc1c(COC(=O)NC(=N)N)cccc1-c1cnc(N2CCOCC2)nc1.O=C(O)C(O)C(O)C(=O)O
[1]
  solubility at 20 h, 130 µM: 34 µM
[2]
  IC50: 410 nM

## N=C(N)NC(=O)Cc1cccc(-c2cnc(N3CCOCC3)nc2)c1
[2]
  IC50: 56 nM

## Cl.N=C(N)NC(=O)OCc1cccc(-c2cnc(N3CCOCC3)nc2)c1F
[1]
  solubility at 20 h, 130 µM: 7.5 µM
[2]
  IC50: 9.2 nM

## N=C(N)NCCc1cccc(CCc2cnc(N3CCOCC3)nc2)c1
[2]
  IC50: > 10000 nM

## N=C(N)NC(=O)OCc1cccc(N2CCN(C3CCOCC3)CC2)c1.O=C(O)C(O)C(O)C(=O)O
[1]
  solubility at 20 h, 130 µM: ≥ 100 µM
[2]
  IC50: 110 nM

## Cl.Cl.N=C(N)NC(=O)OCc1cccc(-c2cnc(N3CCOCC3)nc2)c1Cl
[1]
  solubility at 20 h, 130 µM: 8.2 µM
[2]
  IC50: 600 nM

## CN(Cc1cccc(-c2cnc(N3CCOCC3)nc2)c1)C(=O)CN.O=C(O)C(O)C(O)C(=O)O
[1]
  solubility at 20 h, 130 µM: ≥ 100 µM
[2]
  IC50: 31 nM

## N=C(N)NC(=O)OCc1cccc(N2CCN(c3cccnc3)CC2)c1F.O=C(O)C(O)C(O)C(=O)O
[1]
  solubility at 20 h, 130 µM: 31 µM
CYP2D6
  activity at 20 min, 5 µM: 96%
CYP2C19
  activity at 20 min, 5 µM: 96%
CYP1A2
  activity at 20 min, 5 µM: 94%
CYP3A4
  activity at 20 min, 5 µM: 61%
CYP2C8
  activity at 20 min, 5 µM: 99%

## Cl.Cl.Cl.N=C(N)NC(=O)OCc1cccc(N2CCN(c3ccccn3)CC2)c1
[1]
  solubility at 20 h, 130 µM: ≥ 100 µM
[2]
  IC50: 140 nM

## N=C(N)NC(=O)OCc1cccc(-c2cnc(N3CCOCC3)nc2)c1.O=C(O)C(O)C(O)C(=O)O
[1]
  solubility at 20 h, 130 µM: 8.3 µM
CYP2D6
  activity at 20 min, 5 µM: 93%
CYP2C19
  activity at 20 min, 5 µM: 102%
CYP1A2
  activity at 20 min, 5 µM: 96%
[3]
  remaining at 6 h, 2 µM: 101%
CYP3A4
  activity at 20 min, 5 µM: 109%
[4]
  remaining at 6 h, 2 µM: 103%
[2]
  IC50: 47 nM
[5]
  remaining at 6 h, 2 µM: 98.3%
[6]
  remaining at 6 h, 2 µM: 105%
CYP2C8
  activity at 20 min, 5 µM: 83%

## CN(Cc1cccc(-c2cnc(N3CCOCC3)nc2)c1)C(=O)NC(=N)N
[2]
  IC50: 530 nM

## Cc1nc(N2CCOCC2)ncc1-c1cccc(COC(=O)NC(=N)N)c1F.O=C(O)C(O)C(O)C(=O)O
[1]
  solubility at 20 h, 130 µM: 90 µM
[2]
  IC50: 400 nM

## N=C(N)NC(=O)Cc1cccc(CCc2cnc(N3CCOCC3)nc2)c1
[2]
  IC50: 54 nM

## N=C(N)Nc1ccc(CCc2cnc(N3CCOCC3)nc2)cc1
[2]
  IC50: 5100 nM

## Cl.Cl.Cl.N=C(N)NC(=O)OCc1cccc(N2CCN(c3ccncc3)CC2)c1
[1]
  solubility at 20 h, 130 µM: ≥ 100 µM
CYP2D6
  activity at 20 min, 5 µM: 13%
CYP2C9
  activity at 20 min, 5 µM: 80%
CYP2C19
  activity at 20 min, 5 µM: 91%
CYP1A2
  activity at 20 min, 5 µM: 86%
CYP3A4
  activity at 20 min, 5 µM: 80%
[2]
  IC50: 13 nM
CYP2C8
  activity at 20 min, 5 µM: 25%

## N=C(N)Nc1cccc(CCc2cnc(N3CCOCC3)nc2)c1
[2]
  IC50: > 10000 nM

## N=C(N)NC(=O)OCc1ccc(F)c(-c2cnc(N3CCOCC3)nc2)c1F.N=C(N)NC(=O)OCc1ccc(F)c(-c2cnc(N3CCOCC3)nc2)c1F.O=C(O)C(O)C(O)C(=O)O
[1]
  solubility at 20 h, 130 µM: 17 µM
[2]
  IC50: 77 nM

## N=C(N)NC(=O)OCc1cccc(N2CC(Oc3cccnc3)C2)c1F.N=C(N)NC(=O)OCc1cccc(N2CC(Oc3cccnc3)C2)c1F.O=C(O)C(O)C(O)C(=O)O
[1]
  solubility at 20 h, 130 µM: ≥ 100 µM
CYP2D6
  activity at 20 min, 5 µM: 16%
CYP2C19
  activity at 20 min, 5 µM: 66%
CYP1A2
  activity at 20 min, 5 µM: 84%
CYP3A4
  activity at 20 min, 5 µM: 56%
[2]
  IC50: 24 nM
CYP2C8
  activity at 20 min, 5 µM: 78%

## Cc1ncccc1OC1CN(c2cccc(COC(=O)NC(=N)N)c2F)C1.O=C(O)C(O)C(O)C(=O)O
[1]
  solubility at 20 h, 130 µM: ≥ 100 µM
CYP2D6
  activity at 20 min, 5 µM: 77%
CYP2C19
  activity at 20 min, 5 µM: 91%
CYP1A2
  activity at 20 min, 5 µM: 89%
CYP3A4
  activity at 20 min, 5 µM: 96%
[2]
  IC50: 40 nM
CYP2C8
  activity at 20 min, 5 µM: 46%
